According to PubChem BioAssay (NCI):
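Step 1: Grow cells in 96-well plates. Step 2: Expose to compound for 48 hours at 5 concentrations. Step 3: Interpolate endpoints linearly; if unreached, use highest concentration. The concentration for full growth arrest is given as TGI.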

How the values were obtained:
Experiment in all cases: NCI-60 cell line screen, 48 h
786-0 renal = test system: 786-0 renal
A498 renal = test system: A498 renal
A549 NSCLC = test system: A549 NSCLC
ACHN renal = test system: ACHN renal
CAKI-1 renal = test system: CAKI-1 renal
CCRF-CEM leukemia = test system: CCRF-CEM leukemia
DLD-1 colon = test system: DLD-1 colon
EKVX NSCLC = test system: EKVX NSCLC
HCC-2998 colon = test system: HCC-2998 colon
HCT-116 colon = test system: HCT-116 colon
HCT-15 colon = test system: HCT-15 colon
HL-60(TB) leukemia = test system: HL-60(TB) leukemia
HOP-62 NSCLC = test system: HOP-62 NSCLC
HOP-92 NSCLC = test system: HOP-92 NSCLC
HT29 colon = test system: HT29 colon
IGROV1 ovarian = test system: IGROV1 ovarian
K-562 leukemia = test system: K-562 leukemia
KM12 colon = test system: KM12 colon
KM20L2 colon = test system: KM20L2 colon
LXFL 529 NSCLC = test system: LXFL 529 NSCLC
M14 melanoma = test system: M14 melanoma
M19-MEL melanoma = test system: M19-MEL melanoma
MALME-3M melanoma = test system: MALME-3M melanoma
MOLT-4 leukemia = test system: MOLT-4 leukemia
NCI-H23 lung = test system: NCI-H23 lung
NCI-H460 lung = test system: NCI-H460 lung
NCI-H522 lung = test system: NCI-H522 lung
OVCAR-3 ovarian = test system: OVCAR-3 ovarian
OVCAR-4 ovarian = test system: OVCAR-4 ovarian
OVCAR-5 ovarian = test system: OVCAR-5 ovarian
OVCAR-8 ovarian = test system: OVCAR-8 ovarian
RXF 393 renal = test system: RXF 393 renal
RXF-631 renal = test system: RXF-631 renal
SF-268 CNS = test system: SF-268 CNS
SF-295 CNS = test system: SF-295 CNS
SF-539 CNS = test system: SF-539 CNS
SK-MEL-2 melanoma = test system: SK-MEL-2 melanoma
SK-MEL-28 melanoma = test system: SK-MEL-28 melanoma
SK-MEL-5 melanoma = test system: SK-MEL-5 melanoma
SK-OV-3 ovarian = test system: SK-OV-3 ovarian
SN12C renal = test system: SN12C renal
SNB-19 CNS = test system: SNB-19 CNS
SNB-75 CNS = test system: SNB-75 CNS
SNB-78 CNS = test system: SNB-78 CNS
SR leukemia = test system: SR leukemia
SW-620 colon = test system: SW-620 colon
TK-10 renal = test system: TK-10 renal
U251 CNS = test system: U251 CNS
UACC-62 melanoma = test system: UACC-62 melanoma
UO-31 renal = test system: UO-31 renal
XF 498 CNS = test system: XF 498 CNS
COLO 205 colon = test system: COLO 205 colon
DMS 114 small cell lung = test system: DMS 114 small cell lung
DMS 273 small cell lung = test system: DMS 273 small cell lung
HOP-18 NSCLC = test system: HOP-18 NSCLC
RPMI-8226 leukemia = test system: RPMI-8226 leukemia
UACC-257 melanoma = test system: UACC-257 melanoma

NCCSc1cc(O)c2c(c1N)C(=O)c1ccccc1C2=O
TGI (786-0 renal): > 100 µM | TGI (A498 renal): > 100 µM | TGI (A549 NSCLC): > 100 µM | TGI (ACHN renal): > 100 µM | TGI (CAKI-1 renal): > 100 µM | TGI (CCRF-CEM leukemia): 43.1 µM | TGI (DLD-1 colon): > 100 µM | TGI (EKVX NSCLC): > 100 µM | TGI (HCC-2998 colon): > 100 µM | TGI (HCT-116 colon): > 100 µM | TGI (HCT-15 colon): > 100 µM | TGI (HL-60(TB) leukemia): 66.8 µM | TGI (HOP-62 NSCLC): > 100 µM | TGI (HOP-92 NSCLC): > 100 µM | TGI (HT29 colon): > 100 µM | TGI (IGROV1 ovarian): 65.9 µM | TGI (K-562 leukemia): 69.1 µM | TGI (KM12 colon): > 100 µM | TGI (KM20L2 colon): > 100 µM | TGI (LXFL 529 NSCLC): > 100 µM | TGI (M14 melanoma): > 100 µM | TGI (M19-MEL melanoma): 73.6 µM | TGI (MALME-3M melanoma): 75.5 µM | TGI (MOLT-4 leukemia): 63.8 µM | TGI (NCI-H23 lung): > 100 µM | TGI (NCI-H460 lung): > 100 µM | TGI (NCI-H522 lung): 39.7 µM | TGI (OVCAR-3 ovarian): > 100 µM | TGI (OVCAR-4 ovarian): > 100 µM | TGI (OVCAR-5 ovarian): > 100 µM | TGI (OVCAR-8 ovarian): > 100 µM | TGI (RXF 393 renal): 91.1 µM | TGI (RXF-631 renal): 97.1 µM | TGI (SF-268 CNS): > 100 µM | TGI (SF-295 CNS): > 100 µM | TGI (SF-539 CNS): > 100 µM | TGI (SK-MEL-2 melanoma): > 100 µM | TGI (SK-MEL-28 melanoma): > 100 µM | TGI (SK-MEL-5 melanoma): 33.4 µM | TGI (SK-OV-3 ovarian): > 100 µM | TGI (SN12C renal): > 100 µM | TGI (SNB-19 CNS): > 100 µM | TGI (SNB-75 CNS): > 100 µM | TGI (SNB-78 CNS): > 100 µM | TGI (SR leukemia): 73.4 µM | TGI (SW-620 colon): > 100 µM | TGI (TK-10 renal): > 100 µM | TGI (U251 CNS): > 100 µM | TGI (UACC-62 melanoma): > 100 µM | TGI (UO-31 renal): > 100 µM | TGI (XF 498 CNS): 49.5 µM

N#CC12CCC1C1CCCCC12N1CCSCC1 (stereo not drawn)
TGI (786-0 renal): > 100 µM | TGI (A498 renal): > 100 µM | TGI (A549 NSCLC): > 100 µM | TGI (ACHN renal): > 100 µM | TGI (CAKI-1 renal): > 100 µM | TGI (CCRF-CEM leukemia): > 100 µM | TGI (COLO 205 colon): > 100 µM | TGI (DLD-1 colon): > 100 µM | TGI (DMS 114 small cell lung): > 100 µM | TGI (DMS 273 small cell lung): > 100 µM | TGI (HCC-2998 colon): > 100 µM | TGI (HCT-116 colon): > 100 µM | TGI (HCT-15 colon): > 100 µM | TGI (HL-60(TB) leukemia): 46.1 µM | TGI (HOP-18 NSCLC): > 100 µM | TGI (HOP-62 NSCLC): > 100 µM | TGI (HOP-92 NSCLC): > 100 µM | TGI (HT29 colon): > 100 µM | TGI (IGROV1 ovarian): > 100 µM | TGI (K-562 leukemia): > 100 µM | TGI (KM12 colon): > 100 µM | TGI (KM20L2 colon): > 100 µM | TGI (LXFL 529 NSCLC): > 100 µM | TGI (M19-MEL melanoma): > 100 µM | TGI (MOLT-4 leukemia): > 100 µM | TGI (NCI-H23 lung): > 10 µM | TGI (NCI-H460 lung): > 100 µM | TGI (OVCAR-3 ovarian): > 100 µM | TGI (OVCAR-4 ovarian): > 10 µM | TGI (OVCAR-8 ovarian): > 100 µM | TGI (RPMI-8226 leukemia): > 100 µM | TGI (RXF 393 renal): 86.5 µM | TGI (SF-295 CNS): > 100 µM | TGI (SF-539 CNS): > 100 µM | TGI (SK-MEL-2 melanoma): > 100 µM | TGI (SK-MEL-28 melanoma): > 100 µM | TGI (SN12C renal): > 100 µM | TGI (SNB-19 CNS): > 100 µM | TGI (SNB-75 CNS): > 100 µM | TGI (SNB-78 CNS): > 100 µM | TGI (SR leukemia): > 100 µM | TGI (SW-620 colon): > 100 µM | TGI (U251 CNS): > 100 µM | TGI (UACC-257 melanoma): > 10 µM | TGI (UACC-62 melanoma): > 100 µM | TGI (UO-31 renal): > 100 µM | TGI (XF 498 CNS): > 100 µM
